Test results taken from patent EP4548971A1, “1,4-BENZOTHIAZEPINES AND RELATED COMPOUNDS WITH CYCLOPROPANOL GROUPS AS MULTI-TARGETED DRUGS” (Georg-August-Universität Göttingen Stiftung Öffentlichen …, priority 2023, dated 2025).
“Also recorded” adds a separate entry of the source.

Target: T1, SERCA2 (Homo sapiens, UniProt P16615)
T1 construct: endogenous in cells; host or cells: HEK-293T cells, microsomal membrane vesicles
Test: NADH-coupled ATPase assay on microsomal membrane vesicles from HEK-293T cells (HEK-293 ER)
Format: biochemical
Set-up: key to SERCA2a HEK ER effect class: +++: a strong effect, comparable to or greater than that of a known compounds at a given concentration (25 µM in RyR2 R-CEPIA1er assay, 10 µM in caffeine assay and on microsomal membrane vesicles); ++: moderate effect; +: observable effect; -: no effect
Conditions: for SERCA2a HEK ER effect class: 10 µM on microsomal membrane vesicles; for effect on SERCA2 ATPase activity, in words: microsomes from HEK-293 ER, 10 µM (1 µM for 14b), vs. 0.1 % DMSO
Protocol: Isolation of microsomal membrane vesicles from HEK-293T cells (HEK-293 ER) was performed according to Stewart et al.^61 HEK-293T cells were harvested with Trypsin/EDTA, washed twice with ice-cold PBS containing protease inhibitor cocktail (cOmplete™, Roche, Mannheim, Germany) and centrifuged 800 × g for 5 min. The pellet was resuspended in ice-cold lysis buffer (1 mM EDTA, 10 mM HEPES, cOmplete, pH 7.4) and incubated on ice for 20 minutes. After the cells were homogenized with a tight fitting Dounce homogenizer (10-20 strokes), an equal volume of restoration buffer (500 mM sucrose, 10 mM HEPES, cOmplete, pH 7.2) was added and the cells were homogenized again (10-20 strokes). The homogenate was centrifuged at 10000 × g for 20 min at 4° C. The supernatant was collected and centrifuged again for another 2 hours (100000 × g at 4° C). Then the pellet was carefully resuspended in resuspension buffer (250 mM sucrose, 10 mM HEPES, cOmplete, pH 7.2) on ice by pipetting the solution up and down until fully dissolved. The obtained solution was diluted to a protein concentration of 15-20 µg/µl with the resuspension buffer, the aliquots were snap frozen in liquid nitrogen and stored at - 80 °C until usage.
To determine whether new compounds could increase the SERCA2a activity, HEK-293 microsomes (40 - 150 µg of total protein) or mouse ventricular microsomes (1 - 20 µg of total protein) were diluted in 100 µl of the assay buffer used for measurement of SERCA activity (described below) and incubated at room temperature for 5 minutes prior to the experiments. The measurements of SERCA2a activity were made at 28 °C by using a NADH -coupled ATPase assay. Briefly, the assay buffer contained 60 mM MOPS, 120 mM KCI, 6 mM MgCl2, 1 mM EGTA, 5 mM NaN3, 0.5 mM phosphoenolpyruvate and 1.5 mM CaCl2, pH 7.0. Before the reaction was started by the injection of […] ATP (resulting in 2 mM final concentration in the well), 5 units/mL of both lactate dehydrogenase and pyruvate kinase, 0.5 mM NADH, and 1 µM Ca^2+ ionophore A-23187 (Sigma, C-7522) were added to the diluted sample with or without the tested compound. The 1.5 mM Ca/EGTA buffer has a free Ca^2+ concentration of about 200 µM. The NADH fluorescence decrease was recorded each 2 s for 10 min course on a multiwell plate reader TECAN Spark 20M in 96-well glass bottom plates (MatTek Corporation; Cat. No. PBK96G-1.5-5-F). Fluorescence was evoked by 380 nm excitation wavelength and collected in a bottom-read mode at 425 nm. Exposure - 30 flashes, excitation bandwidth - 10 nm, emission bandwidth - 10 nm. ATP was injected at 30 s. […] The data were analyzed with computer software GraphPad Prism version 8.3.1 (GraphPad Software, Inc.). The difference in signal decrease with and without microsomes was taken as an indicator for the additional ATPase activity performed by SERCA2a. The obtained values for maximal SERCA2a activity were normalized for total protein concentration. Maximal SERCA2a activity values are reported as percentages of control (0.1% DMSO) values. Microsomal samples that were kept on ice until usage and set to 100%.
In an NADH assay, the change in NADH coenzyme fluorescence reflects the level of the consumption of ATP, which can be taken as an indicator of SERCA2 activity [G. B. Warren, P. A. Toon, N. J. Birdsall, A. G. Lee, J. C. Metcalfe, Reconstitution of a calcium pump using defined membrane components. Proc. Natl. Acad. Sci. U.S.A. 1974, 71, 622 - 626]. ATP hydrolysis by SERCA2 is required to pump calcium ions into the SER. A higher rate of ATP hydrolysis corresponds to enhanced SERCA2 ATPase activity that leads to a greater pumping of calcium ions into the SR.
The rate of NADH oxidation, which is coupled to ATP hydrolysis, was observed by measuring changes in NADH intrinsic fluorescence over time after ATP injection into microsomal membranes enriched in SER vesicles isolated from mouse heart ventricles (mouse SER) and ER vesicles from HEK-293T cells (HEK-293 ER). […]

T1 sequence (P16615 whole entry): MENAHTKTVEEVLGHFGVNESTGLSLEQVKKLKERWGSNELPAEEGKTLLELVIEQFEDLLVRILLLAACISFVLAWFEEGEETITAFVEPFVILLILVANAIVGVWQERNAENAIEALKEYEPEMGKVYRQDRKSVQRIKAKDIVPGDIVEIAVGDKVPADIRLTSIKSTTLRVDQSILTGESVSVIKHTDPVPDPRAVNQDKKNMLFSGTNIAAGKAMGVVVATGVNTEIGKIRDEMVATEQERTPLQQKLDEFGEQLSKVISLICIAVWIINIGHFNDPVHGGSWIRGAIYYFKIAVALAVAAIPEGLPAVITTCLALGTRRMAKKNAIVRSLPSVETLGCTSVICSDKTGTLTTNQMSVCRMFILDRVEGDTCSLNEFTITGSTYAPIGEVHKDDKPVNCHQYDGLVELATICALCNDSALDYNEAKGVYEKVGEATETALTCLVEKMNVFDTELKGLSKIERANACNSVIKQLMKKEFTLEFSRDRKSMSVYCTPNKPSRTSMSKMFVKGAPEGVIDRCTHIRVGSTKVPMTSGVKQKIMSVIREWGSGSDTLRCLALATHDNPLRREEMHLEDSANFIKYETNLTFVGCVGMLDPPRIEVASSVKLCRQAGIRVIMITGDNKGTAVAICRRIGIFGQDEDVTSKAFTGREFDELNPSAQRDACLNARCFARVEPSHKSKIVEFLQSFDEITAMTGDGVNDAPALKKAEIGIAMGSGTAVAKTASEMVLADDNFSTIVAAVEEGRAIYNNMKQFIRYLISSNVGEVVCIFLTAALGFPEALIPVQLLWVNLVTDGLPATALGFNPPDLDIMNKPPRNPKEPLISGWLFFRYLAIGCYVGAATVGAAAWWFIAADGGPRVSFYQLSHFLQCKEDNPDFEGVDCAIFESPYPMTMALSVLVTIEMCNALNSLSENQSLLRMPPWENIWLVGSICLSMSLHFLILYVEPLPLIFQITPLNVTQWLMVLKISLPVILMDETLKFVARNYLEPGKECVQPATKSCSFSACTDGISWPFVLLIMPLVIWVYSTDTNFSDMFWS

Question: How did the “SERCA2a HEK ER effect class” value turn out when `COc1ccc2c(c1)CN(CCCCC1(O)CC1)CCS2` [Compound 13d, 1-(4-(7-methoxy-2,3-dihydrobenzo[1,4-f]thiazepin-4(5H)-yl)butyl)cyclopropan-1-ol] was run?
Answer: +

Question: What about the “effect on SERCA2 ATPase activity, in words” value (“effect … in words” for short) of the same molecule?
Answer: significant activation of SERCA2 ATPase; also recorded: slight

Question: `COc1ccc(SCCCN(CCCCC2(O)CC2)CCCCC2(O)CC2)cc1` [Compound 14c, 1,1'-(((3-((4-Methoxyphenyl)thio)propyl)azanediyl)bis(butane-4,1-diyl))bis(cyclopropan-1-ol)] was tested. Which “SERCA2a HEK ER effect class” value did it give?
Answer: +

Question: `COc1ccc2c(c1)CN(Cc1ccc(C(=O)O)cc1)CCS2` [ARM210, reference compound] was tested. Which “SERCA2a HEK ER effect class” value did it give?
Answer: +

Question: What about the “effect … in words” value of the same molecule?
Answer: significant activation of SERCA2 ATPase

Question: Which “SERCA2a HEK ER effect class” value does the source give for `COc1ccc(OCCCNCCCCC2(O)CC2)cc1` [Compound 13b, 1-(4-((3-(4-methoxyphenoxy)propyl)amino)butyl)cyclopropan-1-ol] here?
Answer: -

Question: What does the source list for `COc1ccc2c(c1)CN(CCCCN(CCCCC1(O)CC1)CCCCC1(O)CC1)CCS2` [Compound 14a, 1,1'-(((4-(7-Methoxy-2,3-dihydrobenzo[1,4-f]thiazepin-4(5H)-yl)butyl)azanediyl)bis(butane-4,1-diyl))bis(cyclopropan-1-ol)]?
Answer: SERCA2a HEK ER effect class: ++; EC50 (ATPase activity, range after the semicolon is not explained, read-out: SERCA2a HEK ER (EC50)): 16 nM

Question: How did the “SERCA2a HEK ER effect class” value turn out when `COc1ccc2c(c1)CN(CCCCNCCCCC1(O)CC1)CCS2` [Compound 13a, 1-(4-((4-(7-Methoxy-2,3-dihydrobenzo[1,4-f]-thiazepin-4(5H)-yl)butyl)amino)butyl)cyclopropan-1-ol] was run?
Answer: -

Question: What about the “effect … in words” value of the same molecule?
Answer: did not evoke significant increase in ATPase activity; also recorded: could not detect SERCA2 activation

Question: What does the source list for `COc1ccc(SCCCNCCCCC2(O)CC2)cc1` [Compound 13c, 1-(4-((3-((4-Methoxyphenyl)thio)propyl)amino)butyl)cyclopropan-1-ol]?
Answer: SERCA2a HEK ER effect class: +; effect on SERCA2 ATPase activity, in words: significant activation of SERCA2 ATPase
